This is an account of results in patent US20140093513A1, “METHODS OF LOWERING PROPROTEIN CONVERSATE SUBTILISIN/KEXIN TYPE 9 (PCSK9)” (Catabasis Pharmaceuticals, Inc., priority 2012, published 2014).

In one assay the test system is PCSK9. In words: PCSK9 secretion assay in HepG2 cells (PCSK9 ELISA). It counts as cell-based. The method in brief:
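HepG2 cells in serum-free DMEM with compound added in FBS (ethanol-matched) and incubated 16 hours, in triplicate. Secreted PCSK9 in supernatant measured by ELISA (A450), with AlamarBlue viability check. IC50 obtained from at least 6 concentrations.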

Assay [1] concerns Zucker fa/fa Rat model of Dyslipidemia. Briefly: Plasma triglyceride level in the Zucker fa/fa rat model of dyslipidemia. It counts as in vivo. As to conditions: Zucker rats, po qd, I-8 at 10, 30, 100 and 300 mg/kg; niacin/EPA 100/200 mg/kg; day 4 fed blood sample, FIG. 3. As for the experimental part:
Male Zucker rats (HsdHlr: Zucker-Lepr̂fa) between 8-10 weeks of age were purchased from Harlan and maintained on Purina Rodent Diet (5001) for the duration of the study. Animals were randomized and assigned to treatment arms based on body weight and plasma triglyceride (TG) levels (n=8). Inclusion criteria for the study include body weight >300 grams and fed TG levels in plasma >800 mg/dL. Dosing will be initiated on day 1 and continue through day 5. Dosing will be daily (qd) by oral gavage (po) for all treatment arms (Compound I-8 was administered orally at 4 different doses, 10, 30, 100 and 300 mg/kg; in addition, a combination of niacin/EPA in a ratio of 100/200 mg/kg was also employed). Body weights will be measured for all rats on days 1 through 5. On day 4, a blood sample (fed) will be collected from each rat, processed for plasma and stored at −80° C. Plasma triglyceride level was determined from commercial kits using standard protocols. […] Because compound I-8 was able to lower fed plasma triglyceride, it is useful to treat dyslipidemia as well as other diseases such as type I hyperlipoproteinemia and type 5 hyperlipoproteinemia.

Another assay concerns ApoE3Leiden mice. Briefly: Plasma cholesterol and triglycerides in ApoE3Leiden mice on Western type diet, 2 and 4 weeks of treatment. Format: in vivo. The settings on record: female APOE*3Leiden mice, WTD, I-8 0.75% w/w, atorvastatin 0.0015% w/w in diet. On the procedure: The study was conducted using female APOE*3Leiden mice (groups of each n=10) and one untreated reference control group on chow (n=5). To induce dyslipidemia, a high cholesterol Western type diet containing 1% cholesterol, 15% cacao butter, 40.5% sucrose and 1% corn oil (WTD) was fed to the mice for a total experimental period of 20 weeks (of which 4 weeks are a run-in period).
The dyslipidemic mice were grouped on the basis of plasma cholesterol at t=0 assayed in 4 h fasting blood. Mice with low cholesterol after the run-in period were excluded so that homogenous experimental groups were obtained. A group of reference mice (n=5) remained on a chow diet during the complete study period (normolipidemic reference mice).
This mix was then added to the master mix (containing the rest of the ingredients) and mixed thoroughly. The diet was frozen to −20° C. On the subsequent day, the diet was broken into small pellets (approx 5 g per piece) and freeze dried, and stored in vacuum sealed bags (approx 500 g) at −20° C. until use. The diets were refreshed daily and unused diet was discarded.
1) Body weight at −4, 0, 2, 4 weeks 2) Food intake (g/day/mouse) at 0, 2, 4 weeks (per cage) 3) Plasma total cholesterol at −4, 0, 2, 4 weeks (individually) 4) Plasma triglycerides at −4, 0, 2, 4 weeks (individually) 5) Lipoprotein profiles at 0 (pool of all animals) and 4 weeks (cholesterol distribution over VLDL, LDL and HDL-sized particles, analysis on group level).
EDTA plasma was collected in weeks −4, 0, 2 and 4 weeks. Plasma cholesterol, plasma triglyceride levels and lipoprotein profileswere assayed immediately in fresh plasma.

Another assay deals with ApoE*3 Leiden mice. In words: Plasma lipids and liver weight of ApoE*3 Leiden mice on Western type diet, 16 weeks of treatment. It counts as in vivo. The settings on record: I-8 in WTD at 7.5 g/kg. On the procedure: The same experimental design used in example 6 was used. Two treatment groups were used (n=15). The control animals were kept on a Western type diet (WTD) consisting of 1% cholesterol, 15% cacao butter, 40.5% sucrose, and 1% corn oil. For the treatment group, compound I-8 was administered in the above WTD at a ratio of 7.5 g/kg. Animals were maintained on the WTD or treatment group for 16 weeks. At the conclusion of the study, plasma cholesterol and triglyceride levels were recorded, as well as the weight of the liver. There was a significant decrease in plasma cholesterol, triglyceride levels as well as liver weight in the treatment group. After 16 weeks of treatment, the cholesterol level of the treatment group was 420 mg/dL, compared with a level of 750 mg/dL for the control group; the triglyceride level was 110 mg/dL, compared with a level of 160 mg/dL for the control group.

Take `CC/C=C\C/C=C\C/C=C\C/C=C\C/C=C\CCCC(=O)NCCNC(=O)c1cccnc1` [Compound I-8, N-(2-(5Z,8Z,11Z,14Z,17Z)-eicosa-5,8,11,14,17-pentaenamidoethyl)nicotinamide]: the “PCSK9 levels in HepG2 cells incubated with atorvastatin” value with PCSK9 (HepG2 cells incubated with 10 μM of atorvastatin along with the test article, FIG. 2) is “decrease PCSK9 levels in a dose response manner”. In the assay with PCSK9 (HepG2 cells, 16 hours incubation, at least 6 concentrations), this compound registered an IC50 of less than 25 µM. The “lowering of PCSK9” value with PCSK9 (HepG2 cells, at 25 and 50 μM, FIG. 1) is “significant lowering of PCSK9”. Also, the “fed plasma triglyceride level” value in assay [1] is given as “dose dependent decrease”. The “plasma cholesterol at t=2 weeks” value in the assay with ApoE3Leiden mice (2 weeks of treatment, FIG. 4) is listed as “statistically significant reduction”. Further, in the assay with ApoE3Leiden mice (4 weeks, FIG. 5), the “plasma cholesterol after 4 weeks of treatment” value is “Comparable level of cholesterol reduction”. Also, the “plasma triglyceride levels after 4 weeks of treatment” value with ApoE3Leiden mice (4 weeks, FIG. 6) is listed as “significant reduction”. Also, the liver weight entry in the assay with ApoE*3 Leiden mice (FIG. 7) is given as “statistically significant drop”. Besides, in the assay on ApoE*3 Leiden mice (control group 160 mg/dL), the “triglyceride level after 16 weeks of treatment” value was found to be 110 mg/dL. In addition, the “cholesterol level after 16 weeks of treatment” value in the assay with ApoE*3 Leiden mice (control group 750 mg/dL) is listed as 420 mg/dL.
